From patent US20090036495A1, “Combinations Comprising Alpha-2-Delta Ligands and Ep4 Receptor Antagonists” (Pfizer, Inc., priority 2004, published 2009)

System: Male Sprague-Dawley rats
Test: Carrageenan-induced mechanical hyperalgesia (CIMH), paw withdrawal threshold
Type: in vivo
Conditions: rat, per orally
Description: Carrageenan-induced mechanical hyperalgesia (CIMH)[1] is utilized to evaluate analgesic activity of drugs against acute inflammatory pain.
1% carrageenan is prepared at least two days before use. An appropriate amount of λ-carrageenain is weighed into a 10 ml screw vial. Sterile saline is added to make 1% (w/v) suspension solution and the suspension is stirred for 8 hours with gentle heating to be dissolved obtain homogeneous suspension.
Male Sprague-Dawley rats, 4 W (Japan SLC or Charles River Japan), 100-130 g are used. Environment conditions are controlled at a 12-h light/dark cycle with (lights on 076:00 a.m.). and an ambient temperature of 23+/−2 deg. C. Prior to start the experiment, animals are housed under this condition for 4-5 days. Each group is used a group of 6-8 rats. The rats are fasted for 16-18 hours before use and the rats are trained for measurement of mechanical threshold using the apparatus for two days before use.
The paw withdrawal response of the rat to increased pressure on a right hindpaw is recorded as mechanical threshold. The threshold is defined as “pre value”. Hyperalgesia is induced by intraplantar injection of 0.1 ml of 1% carrageenain in the right hindpaw. The paw withdrawal threshold is measured at 3.5 and 4.5 hours after the carrageenan injection. Rats are randomly grouped by the paw withdrawal threshold at 4.5 hours and pre value after the carrageenan injection. Vehicle or test compounds (10 ml of 0.1% methylcellulose/1 kg body weight) are given per orally at 5.5 hours after the carrageenain injection. The paw withdrawal Mechanical threshold is measured by an analgesy meter at 4, 5, 6.5 and 7.5 hours after the carrageenin carrageenan injection. The threshold at 6.5 or 7.5 hours is determined as ‘post value’.
% change in threshold=(preost value−postre value)/(pre value)×100% inhibition=(B−A)/(C−A)×100
A=average of % change in threshold post values in disease control (vehicle treated) group B=average of % change in threshold post values in compound treated group C=average of pre values of all rats used
% inhibition=(A−B)/|A|×100
The data is analyzed with unpaired t-test or one-way ANOVA (plus multiple comparison test) for % change in thresholdpost values. Results are considered significant when p<0.05 versus disease control group.

Row | SMILES | Inhibition (%) 2 hours post dosing (dose 0.3 mg/kg) | Inhibition (%) 2 hours post dosing (dose 1 mg/kg) | Inhibition (%) 2 hours post dosing (dose 3 mg/kg) | Inhibition (%) 2 hours post dosing (dose 10 mg/kg) | Inhibition (%) 2 hours post dosing (dose 30 mg/kg) | Inhibition (%) 2 hours post dosing (dose 100 mg/kg)
1 | C[C@H](NC(=O)c1cc(Cl)cnc1Oc1cccc(F)c1)c1ccc(C(=O)O)cc1 [4-[(1S)-1-({[5-chloro-2-(3-fluorophenoxy)pyridin-3-yl]carbonyl}amino)ethyl]benzoic acid] | 19.2% | 41.9% | 50% |  |  | 
2 | CC(C)C[C@H](CN)CC(=O)O [Pregabalin, (S)-(+)-4-amino-3-(2-methylpropyl)butanoic acid] |  |  | 1.6% | 8.4% | 16.4% | 31%
